Reference: patent US7291641B2, “Derivatives of heterocycles with 5 members, their preparation and their use as medicaments” (Societe de Conseils de Recherches et d'Applications …, priority 1999, dated 2007)
Where a name gives a salt, the structure may show the parent alone.

Compound	melting point
CC(C)(C)OC(=O)N[C@H](Cc1c[nH]c2ccccc12)c1nc(-c2ccc([N+](=O)[O-])cc2)c[nH]1 [Example 102, tert-butyl (1R)-2-(1H-indol-3-yl)-1-[4-(4-nitrophenyl)-1H-imidazol-2-yl]-ethylcarbamate]	220 to 222 °C
CC(C)C[C@@H](NC(=O)OC(C)(C)C)c1nc(-c2ccccc2)c[nH]1 [Example 124, tert-butyl (1R)-3-methyl-1-(4-phenyl-1H-imidazol-2-yl)butylcarbamate]	88 to 90 °C
CC(C)(C)c1c[nH]c([C@H](N)Cc2c[nH]c3ccccc23)n1 (as salt: hydrochloride)	230 to 232 °C
CCCCCC(N)c1nc(-c2ccccc2)c[nH]1 (racemic) (as salt: hydrochloride) [Example 65, (R,S)-1-(4-phenyl-1H-imidazol-2-yl)hexylamine]	146 to 148 °C
NCc1nc(-c2ccc(-c3ccccc3)cc2)cn1Cc1ccccc1 (as salt: hydrochloride) [Example 143, (1-benzyl-4-[1,1′-biphenyl]-4-yl-1H-imidazol-2-yl)methanamine]	170 to 174 °C
CC(C)(C)NC(=O)NCCc1nc(-c2ccc(-c3ccccc3)cc2)c[nH]1 [Example 177, 4-[2-(2-{[(tert-butylamino)carbonyl]amino}ethyl)-1H-imidazol-4-yl]-1,1′-biphenyl]	195 to 196 °C
CC[C@H](NCc1ccccc1)c1nc(-c2ccccc2)c(-c2ccccc2)[nH]1 [Example 204, (1S)-N-benzyl-1-(4,5-diphenyl-1H-imidazol-2-yl)-1-propanamine]	182 to 184 °C
CCCCOC(=O)NCCc1nc(-c2ccc(-c3ccc(C#N)cc3)cc2)c[nH]1 [Example 451, butyl 2-[4-(4′-cyano-1,1′-biphenyl-4-yl)-1H-imidazol-2-yl]ethylcarbamate]	147 °C
Brc1cccc(-c2c[nH]c([C@@H](NCC3CCCCC3)C3CCCCC3)n2)c1 (as salt: hydrochloride) [Example 306, (S)-1-[4-(3-bromophenyl)-1H-imidazol-2-yl]-1-cyclohexyl-N-(cyclohexylmethyl)methanamine]	206.3 °C
Fc1ccc(-c2c[nH]c([C@@H](NC3CCCCC3)C3CCCCC3)n2)cc1 (as salt: hydrochloride) [Example 264, N-{(S)-cyclohexyl[4-(4-fluorophenyl)-1H-imidazol-2-yl]methyl}cyclohexanamine]	> 250 °C
Cn1cc(CC(N)c2nc(-c3ccccc3)c[nH]2)c2ccccc21 (racemic) (as salt: hydrochloride) [Example 92, (R,S)-2-(1-methyl-1H-indol-3-yl)-1-(4-phenyl-1H-imidazol-2-yl)ethylamine]	110 to 114 °C
NCCc1nc(-c2ccc(-c3ccccc3)cc2)c[nH]1 (as salt: hydrochloride) [Example 161, 2-(4-[1,1′-biphenyl]4-yl-1H-imidazol-2-yl)ethanamine]	228 to 230 °C
CC(C)(C)CCOC(=O)NCCc1nc(-c2ccc(N3CCCC3)cc2)c[nH]1 [Example 379, 3,3-dimethylbutyl 2-[4-(4-pyrrolidin-1-ylphenyl)-1H-imidazol-2-yl]ethylcarbamate]	119.2 °C
CC(C)(C)OC(=O)N[C@H](Cc1c[nH]c2ccccc12)c1nc(-c2ccccc2)c[nH]1 [Example 96, tert-butyl (1R)-2-(1H-indol-3-yl)-1-(4-phenyl-1H-imidazol-2-yl)-ethylcarbamate]	208 to 210 °C
CC(C)(C)OC(=O)N[C@H](CC1CCCCC1)c1nc(-c2ccccc2)c[nH]1 [Example 130, tert-butyl (1R)-2-cyclohexyl-1-(4-phenyl-1H-imidazol-2-yl)ethylcarbamate]	184 to 185 °C
CCCCCCC(NCC1CCCCC1)c1nc(-c2ccccc2)c[nH]1 (racemic) (as salt: hydrochloride) [Example 263, (R,S) N-(cyclohexylmethyl)-1-(4-phenyl-1H-imidazol-2-yl)-1-heptanamine]	142 to 144 °C
CC(C)(C)OC(=O)NCc1nc(-c2ccc(-c3ccccc3)cc2)cn1Cc1ccccc1 [Example 140, 4-(1-benzyl-2-{[(tert-butoxycarbonyl)amino]methyl}-1H-imidazol-4-yl)-1,1′-biphenyl]	167 to 169 °C
c1ccc(CN[C@H](Cc2c[nH]c3ccccc23)c2nc(-c3ccccc3)c(-c3ccccc3)[nH]2)cc1 [Example 94, (1R)-N-benzyl-1-(4,5-diphenyl-1H-imidazol-2-yl)-2-(1H-indol-3-yl)ethanamine]	146 to 148 °C
c1ccc(CNC2(c3nc(-c4ccccc4)c[nH]3)CCCCC2)cc1 [Example 123, N-benzyl-1-(4-phenyl-1H-imidazol-2-yl)cyclohexanamine]	114 to 116 °C
CCCCOC(=O)NCCc1nc(-c2ccc(-c3ccc(C)cc3)cc2)c[nH]1 [Example 394, butyl 2-[4-(4′-methyl-1,1′-biphenyl-4-yl)-1H-imidazol-2-yl]ethylcarbamate]	168.4 °C
Cc1[nH]c([C@@H](Cc2c[nH]c3ccccc23)NCc2ccccc2)nc1-c1ccccc1 [Example 95, (1R)-N-benzyl-2-(1H-indol-3-yl)-1-(5-methyl-4-phenyl-1H-imidazol-2-yl)ethanamine]	120 to 122 °C

Compound	melting point
CCCCOC(=O)NCCc1nc(-c2ccc(Br)cc2)c[nH]1 [Example 299, butyl 2-[4-(4-bromophenyl)-1H-imidazol-2-yl]ethylcarbamate]	99 to 100 °C
CCCCOC(=O)NCCc1nc(-c2ccc(CC)cc2)c[nH]1 [Example 450, butyl 2-[4-(4-ethylphenyl)-1H-imidazol-2-yl]ethylcarbamate]	92.4 °C
CCCCCCC(NCc1ccccc1)c1nc(-c2ccc(Cl)c(Cl)c2)c[nH]1 (racemic) [Example 77, (R,S)-N-benzyl-1-[4-(3,4-dichlorophenyl)-1H-imidazol-2-yl]-1-heptanamine]	192 to 194 °C
CCCCCCC(NC1CCCCC1)c1nc(-c2ccc(Cl)c(Cl)c2)c[nH]1 (racemic) (as salt: hydrochloride) [Example 250, (R,S)-N-{1-[4-(3,4-dichlorophenyl)-1H-imidazol-2-yl]heptyl}-cyclohexanamine]	194 °C
Fc1ccc(-c2c[nH]c([C@@H](NC3CCC3)C3CCCCC3)n2)cc1F [Example 262, N-{(S)-cyclohexyl[4-(3,4-difluorophenyl)-1H-imidazol-2-yl]methyl}cyclobutanamine]	200 to 202 °C
CCCCCCNC(CCCCCC)c1nc(-c2ccccc2)c[nH]1 (racemic) [Example 64, (R,S)-N-hexyl-1-(4-phenyl-1H-imidazol-2-yl)-1-heptanamine]	140 to 142 °C
CC(C)(C)OC(=O)N[C@H](CC1CCCCC1)c1nc(-c2ccc(-c3ccccc3)cc2)c[nH]1 [Example 150, 4-(2-{(1R)-1-[(tert-butoxycarbonyl)amino]-2-cyclohexylethyl}-1H-imidazol-4-yl)-1,1′-biphenyl]	112 to 114 °C
CCCCOC(=O)NCCc1nc(-c2ccc(-c3ccc(Cl)c(Cl)c3)cc2)c[nH]1 [Example 448, butyl 2-[4-(3′,4′-dichloro-1,1′-biphenyl-4-yl)-1H-imidazol-2-yl]ethylcarbamate]	137.5 °C
CCCCCCC(NC(C)C)c1nc(-c2ccccc2)c[nH]1 (racemic) [Example 248, (R,S)-N-isopropyl-N-[1-(4-phenyl-1H-imidazol-2-yl)heptyl]amine]	114 to 116 °C
Fc1cccc(-c2c[nH]c([C@@H](NCC3CCCCC3)C3CCCCC3)n2)c1 (as salt: hydrochloride) [Example 312, (S)-1-cyclohexyl-N-(cyclohexylmethyl)-1-[4-(3-fluorophenyl)-1H-imidazol-2-yl]methanamine]	180 to 186 °C
CCCCCCC(N)c1nc(-c2ccc(OC)cc2)c[nH]1 (racemic) (as salt: hydrochloride) [Example 190, (R,S)-1-[4-(4-methoxyphenyl)-1H-imidazol-2-yl]heptylamine]	231 to 232 °C
O=C(N[C@H](Cc1c[nH]c2ccccc12)c1nc(-c2ccccc2)c[nH]1)OCc1ccccc1 [Example 99, benzyl (1R)-2-(1H-indol-3-yl)-1-(4-phenyl-1H-imidazol-2-yl)ethylcarbamate]	105 to 108 °C
CC(C)CCCC(NC1CCCCC1)c1nc(-c2cccc(Br)c2)c[nH]1 (centres unmarked) [Example 37, N-{1-[4-(3-bromophenyl)-1H-imidazol-2-yl]-5-methylhexyl}-N-cyclohexylamine]	236 to 238 °C
CCCCC(=O)NCCc1nc(-c2ccc(-c3ccccc3)cc2)c[nH]1 [Example 32, N-[2-(4-[1,1′-biphenyl]-4-yl-1H-imidazol-2-yl)ethyl]pentanamide]	166 to 167 °C
Cc1[nH]c(CN(C)C(=O)OC(C)(C)C)nc1-c1ccccc1 [Example 153, tert-butyl methyl[(5-methyl-4-phenyl-1H-imidazol-2-yl)methyl]carbamate]	70 to 72 °C
Fc1cccc(-c2c[nH]c([C@@H](NC3CCC3)C3CCCCC3)n2)c1 [Example 87, N-{(S)-cyclohexyl[4-(3-fluorophenyl)-1H-imidazol-2-yl]methyl}-cyclobutanamine]	172 to 176 °C
CCCCCCC(NCc1ccccc1)c1nc(-c2ccc(N(CC)CC)cc2)c[nH]1 (racemic) (as salt: hydrochloride) [Example 230, (R,S)-N-benzyl-N-(1-{4-[4-(diethylamino)phenyl]-1H-imidazol-2-yl}heptyl)amine]	170 °C
CCCCOC(=O)NCCc1nc(-c2ccc(-c3ccccc3)cc2)c(CC)[nH]1 [Example 453, butyl 2-[4-(1,1′-biphenyl-4-yl)-5-ethyl-1H-imidazol-2-yl]ethylcarbamate]	127 to 128 °C
CCCCCCC(NCc1ccccc1)c1nc(-c2ccccc2)c[nH]1 (racemic) [Example 145, (R,S)-N-benzyl-1-(4-phenyl-1H-imidazol-2-yl)-1-heptanamine]	160 to 162 °C
CCCCCCC(N)c1nc(-c2ccccc2OC)c[nH]1 (racemic) (as salt: hydrochloride) [Example 185, (R,S)-1-[4-(2-methoxyphenyl)-1H-imidazol-2-yl]heptylamine]	238 to 240 °C
